# According to patent US9132161B2:
# Key:
# [1] = molecular target: T1, ERβ (Homo sapiens, UniProt Q92731); conditions: in the presence of ERβ
# [2] = molecular target: T1, ERβ; assay: TNF-RE tkLuc repression in U2OS cells, ERβ; format: cell-based; parameters: expressed in transfected cells
# [3] = system: TNF-RE tkLuc; assay: Antiestrogen effect on TNF-RE tkLuc (Example 2); format: cell-based, human; conditions: for effect on the repression induced by E2: TNF-RE tkLuc; for activation of TNF-RE tkLuc: antiestrogens, in contrast to E2
# [4] = system: postmenopausal women who have osteoporosis; conditions: median follow-up of 40 months, cited from earlier work
# [5] = molecular target: T1, ERβ; assay: ERE-tk-Luc luciferase assay in U2OS cells, ERβ; format: cell-based; parameters: expressed in transfected cells; host or cells: U2OS (human osteosarcoma), electroporated; conditions: competition with herb 6, U2OS cells, FIG. 6
# [6] = system: women with estrogen receptor-positive breast cancer; conditions: five years of therapy; cited from earlier work
# [7] = system: women considered to be at high risk for breast cancer; conditions: cited from earlier work
# T1 sequence (Q92731 whole entry): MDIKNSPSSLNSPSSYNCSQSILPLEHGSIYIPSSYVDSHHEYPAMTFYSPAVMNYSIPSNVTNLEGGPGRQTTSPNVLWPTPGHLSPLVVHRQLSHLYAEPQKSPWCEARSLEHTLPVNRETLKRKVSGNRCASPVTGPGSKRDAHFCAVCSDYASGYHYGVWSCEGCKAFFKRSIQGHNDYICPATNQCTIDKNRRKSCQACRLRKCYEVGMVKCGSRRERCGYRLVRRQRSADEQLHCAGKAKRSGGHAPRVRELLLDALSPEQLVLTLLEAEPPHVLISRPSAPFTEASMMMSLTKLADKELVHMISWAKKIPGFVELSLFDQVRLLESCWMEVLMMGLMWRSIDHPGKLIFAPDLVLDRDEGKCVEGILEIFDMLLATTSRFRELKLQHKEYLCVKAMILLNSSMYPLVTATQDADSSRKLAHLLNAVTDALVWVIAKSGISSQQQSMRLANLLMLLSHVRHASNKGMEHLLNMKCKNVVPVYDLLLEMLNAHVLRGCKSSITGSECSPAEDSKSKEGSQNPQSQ
repression of TNF-α activation of TNF-RE tkLuc [1],repression of TNF-α activation of TNF-RE [2] [%],effect on herb 6 stimulation of the ERE with ERβ [5],Compound,effect on the repression induced by E2 [3],activation of TNF-RE tkLuc [3] [fold],cases of breast cancer in the treatment group ([4]; among 5129 women) [cases],RR of breast cancer versus placebo [4],reduction of mortality from breast cancer [6] [%],reduction of the risk of recurrences [6] [%],reduction of the risk of primary invasive breast cancer [7] [%]
60-80%,100,,"C[C@]12CC[C@@H]3c4ccc(O)cc4CC[C@H]3[C@@H]1CC[C@@H]2O [E2, estradiol]",,,,,,,
,,,"C[C@]12CC[C@@H]3c4ccc(O)cc4C[C@@H](CCCCCCCCC[S+]([O-])CCCC(F)(F)C(F)(F)F)[C@H]3[C@@H]1CC[C@@H]2O (some centres unmarked) [ICI 182, 780]",abolished the repression induced by E2,2,,,,,
,,inhibited,O=C(c1ccc(OCCN2CCCCC2)cc1)c1c(-c2ccc(O)cc2)sc2cc(O)ccc12 [raloxifene],abolished the repression induced by E2,2,13,0.24,,,
,,,CC/C(=C(\c1ccccc1)c1ccc(OCCN(C)C)cc1)c1ccccc1 [tamoxifen],abolished the repression induced by E2,2,,,22,42,49
